Among the test systems are HCC 2998; IGROV-1; SW-620; RXF 393; EKVX; UO-31; SF-268; NCI-H522; SK-MEL-28; U-251; RPMI-8226; A549; SK-MEL-5; OVCAR-5; HCT-15; ACHN; OVCAR-8; OVCAR-3.
Common to all, as to assay: growth of human tumour cells (NCI), 48 h

Each structure is given as a SMILES string.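 Briefly, cells in 96-well plates were exposed to five compound concentrations for 48 h, and endpoints were estimated by linear interpolation. Here, GI50 denotes the concentration required for 50% inhibition of growth.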 Active and inactive are the calls of the source. Rule as the data show it: active = GI50 up to about 1.1 µM and inactive = higher.

On to `CSC1=Nc2ccccc2N=C(c2ccc(Cl)cc2)C1`, for which the GI50 is > 10 µM (inactive) with HCC 2998; 22.8 µM (inactive) in the experiment with IGROV-1; 39.1 µM (inactive) in the experiment with SW-620; 20.4 µM (inactive) in the experiment with RXF 393; 20.5 µM (inactive) in the experiment with EKVX; 24.5 µM (inactive) in the experiment with UO-31. Moreover, the GI50 in the experiment with SF-268 is 42.3 µM (inactive); with NCI-H522 it was 43.1 µM (inactive); in the experiment on SK-MEL-28 it was 42 µM (inactive); in the experiment with U-251, 33.4 µM (inactive); with RPMI-8226 it was 33.4 µM (inactive); in the experiment with A549, 43.8 µM (inactive). The GI50 with SK-MEL-5 was 24.2 µM (inactive); with OVCAR-5 it was 27.8 µM (inactive); in the experiment with HCT-15 it was 26.9 µM; in the experiment on ACHN, 36.6 µM (inactive); in the experiment on OVCAR-8 it was 52.7 µM (inactive); with OVCAR-3 it was 33.3 µM (inactive).

On to `COC(=O)CC(NC(=O)OCc1ccccc1)C(C(C)=O)C(=O)OCc1ccccc1` (stereo not drawn), for which the GI50 in the experiment with HCC 2998 is > 10 µM (inactive); in the experiment on IGROV-1, > 31.6 µM (inactive); with SW-620, > 31.6 µM (inactive); in the experiment with RXF 393 it was > 10 µM (inactive); in the experiment on EKVX, > 31.6 µM (inactive); in the experiment with UO-31, > 31.6 µM (inactive). Also, the GI50 in the experiment on SF-268, in the experiment with NCI-H522, in the experiment with SK-MEL-28, in the experiment on U-251, in the experiment on RPMI-8226 and in the experiment on A549 was > 31.6 µM (inactive) in each case. Further, the GI50 in the experiment with SK-MEL-5 was > 31.6 µM (inactive); with OVCAR-5, > 100 µM (inactive); with HCT-15, > 31.6 µM; in the experiment with ACHN, > 31.6 µM (inactive); in the experiment with OVCAR-8, > 31.6 µM (inactive); with OVCAR-3 it was > 31.6 µM (inactive).

On to `CN(C)/C(=N/C(=O)Nc1ccccc1)SCc1ccccc1`, for which the GI50 in the experiment with HCC 2998 was > 100 µM (inactive); in the experiment with IGROV-1, > 100 µM (inactive); with SW-620, > 100 µM (inactive); with RXF 393, 58.9 µM (inactive); with EKVX, > 100 µM (inactive); with UO-31 it was > 100 µM (inactive). In addition, the GI50 with SF-268 was > 100 µM (inactive); in the experiment with NCI-H522, 91.2 µM (inactive); in the experiment with SK-MEL-28, > 100 µM (inactive); in the experiment with U-251, > 100 µM (inactive); in the experiment on RPMI-8226 it was > 100 µM (inactive); in the experiment with A549, > 100 µM (inactive). In addition, the GI50 with SK-MEL-5 is > 100 µM (inactive); with OVCAR-5, > 100 µM (inactive); with HCT-15, > 100 µM; in the experiment on ACHN it was > 100 µM (inactive); in the experiment with OVCAR-8, > 100 µM (inactive); in the experiment on OVCAR-3, > 100 µM (inactive).

Turning to `CCCCCCCCCCCCCC1CCC(CC)N1` (stereo not drawn), the GI50 in the experiment with HCC 2998 was 2.41 µM (inactive); with IGROV-1, 20.9 µM (inactive); with SW-620 it was 15.9 µM (inactive); with RXF 393, 17.9 µM (inactive); in the experiment on EKVX it was 16.9 µM (inactive); with UO-31, 14.2 µM (inactive). For the same compound, the GI50 is 8.81 µM (inactive) in the experiment on SF-268; 18.2 µM (inactive) in the experiment with NCI-H522; 7.66 µM (inactive) in the experiment on SK-MEL-28; 7.41 µM (inactive) in the experiment with U-251; 14 µM (inactive) in the experiment with RPMI-8226; 20.8 µM (inactive) with A549. For the same compound, the GI50 is 17.8 µM (inactive) in the experiment on SK-MEL-5; 16.6 µM (inactive) with OVCAR-5; 6.52 µM in the experiment with HCT-15; 7.23 µM (inactive) in the experiment on ACHN; 20 µM (inactive) in the experiment on OVCAR-8; 16.2 µM (inactive) in the experiment on OVCAR-3.

As to `CC1(Cl)C(=O)NC(=O)N(C2CC(N=[N+]=[N-])C(CO)O2)C1N=[N+]=[N-]` (stereo not drawn), the GI50 in the experiment on HCC 2998, in the experiment on IGROV-1, with SW-620, in the experiment with RXF 393, with EKVX and in the experiment with UO-31 was > 100 µM (inactive) in each case. The GI50 with SF-268, in the experiment on NCI-H522, in the experiment with SK-MEL-28, in the experiment on U-251, with RPMI-8226 and in the experiment with A549 was > 100 µM (inactive) throughout. Besides, the GI50 in the experiment on SK-MEL-5 was > 100 µM (inactive); in the experiment with OVCAR-5, > 100 µM (inactive); with HCT-15, > 100 µM; with ACHN it was > 100 µM (inactive); with OVCAR-8, > 100 µM (inactive); with OVCAR-3, > 100 µM (inactive).

`CC(=O)/C(=C\c1ccco1)C(=O)Nc1ccccc1`: the GI50 in the experiment with HCC 2998, in the experiment with IGROV-1, with SW-620, with RXF 393, with EKVX and with UO-31 was > 100 µM (inactive) in each case. In addition, the GI50 in the experiment with SF-268, in the experiment on NCI-H522, in the experiment on SK-MEL-28, in the experiment on U-251, with RPMI-8226 and in the experiment with A549 was > 100 µM (inactive) throughout. The GI50 in the experiment with SK-MEL-5 is > 100 µM (inactive); in the experiment with HCT-15 it was > 100 µM; in the experiment on ACHN, > 100 µM (inactive); in the experiment with OVCAR-8, > 100 µM (inactive); in the experiment with OVCAR-3 it was > 100 µM (inactive).

Regarding `O=C1OC(c2ccccc2)=N/C1=C/N1CCCC1C(=O)O` (stereo not drawn), the GI50 in the experiment on HCC 2998, with IGROV-1, with SW-620, in the experiment on RXF 393, with EKVX and with UO-31 was > 100 µM (inactive) throughout. The GI50 in the experiment on SF-268, in the experiment with NCI-H522, with SK-MEL-28, in the experiment on U-251, with RPMI-8226 and in the experiment with A549 was > 100 µM (inactive) each time. Also, the GI50 is > 100 µM (inactive) with SK-MEL-5; > 100 µM (inactive) in the experiment with OVCAR-5; > 100 µM in the experiment on HCT-15; > 100 µM (inactive) in the experiment with ACHN; > 100 µM (inactive) in the experiment on OVCAR-8; > 100 µM (inactive) in the experiment on OVCAR-3.

As to `NNC(=O)C1CCC(=O)N1S(=O)(=O)c1ccccc1` (stereo not drawn), the GI50 in the experiment on HCC 2998, in the experiment on IGROV-1, in the experiment with SW-620, in the experiment with RXF 393, in the experiment with EKVX and in the experiment with UO-31 was > 100 µM (inactive) in each case. Further, the GI50 with SF-268, in the experiment on NCI-H522, in the experiment with SK-MEL-28, in the experiment with U-251, in the experiment with RPMI-8226 and with A549 was > 100 µM (inactive) each time. In addition, the GI50 in the experiment on SK-MEL-5 was > 100 µM (inactive); in the experiment with OVCAR-5, > 100 µM (inactive); in the experiment with HCT-15, > 100 µM; with ACHN it was > 100 µM (inactive); in the experiment on OVCAR-8 it was > 100 µM (inactive); in the experiment with OVCAR-3 it was > 100 µM (inactive).

Source of the values: ChEMBL document CHEMBL1201862, “PubChem BioAssay data set” (2004).
